The results in this text go back to BindingDB's records for doi:10.1016/j.ejmech.2016.06.010 (Monash University, 2016).

A short description of assay [1]: Inhibition of PI3Kbeta in human washed platelets assessed as suppression of ADP-induced platelet aggregation preincubated for 5 mins followed by ADP stimulation after 10 mins by light transmission aggregometric analysis.
Assay [2] addresses Phosphatidylinositol 4,5-bisphosphate 3-kinase catalytic subunit beta isoform (Homo sapiens, UniProt P42338). The assay can be described thus: Inhibition of PI3Kbeta in human washed platelets assessed as suppression of ADP-induced platelet aggregation preincubated for 5 mins followed by ADP stimulation after 10 mins by light transmission aggregometric analysis.
Assay [3] can be described thus: Inhibition of PI3Kbeta in human platelet-rich plasma assessed as suppression of ADP-induced platelet aggregation preincubated for 5 mins followed by ADP stimulation after 10 mins by light transmission aggregometric analysis.

SMILES strings stand for the structures.

Chain of Phosphatidylinositol 4,5-bisphosphate 3-kinase catalytic subunit beta isoform (P42338 whole entry, canonical isoform): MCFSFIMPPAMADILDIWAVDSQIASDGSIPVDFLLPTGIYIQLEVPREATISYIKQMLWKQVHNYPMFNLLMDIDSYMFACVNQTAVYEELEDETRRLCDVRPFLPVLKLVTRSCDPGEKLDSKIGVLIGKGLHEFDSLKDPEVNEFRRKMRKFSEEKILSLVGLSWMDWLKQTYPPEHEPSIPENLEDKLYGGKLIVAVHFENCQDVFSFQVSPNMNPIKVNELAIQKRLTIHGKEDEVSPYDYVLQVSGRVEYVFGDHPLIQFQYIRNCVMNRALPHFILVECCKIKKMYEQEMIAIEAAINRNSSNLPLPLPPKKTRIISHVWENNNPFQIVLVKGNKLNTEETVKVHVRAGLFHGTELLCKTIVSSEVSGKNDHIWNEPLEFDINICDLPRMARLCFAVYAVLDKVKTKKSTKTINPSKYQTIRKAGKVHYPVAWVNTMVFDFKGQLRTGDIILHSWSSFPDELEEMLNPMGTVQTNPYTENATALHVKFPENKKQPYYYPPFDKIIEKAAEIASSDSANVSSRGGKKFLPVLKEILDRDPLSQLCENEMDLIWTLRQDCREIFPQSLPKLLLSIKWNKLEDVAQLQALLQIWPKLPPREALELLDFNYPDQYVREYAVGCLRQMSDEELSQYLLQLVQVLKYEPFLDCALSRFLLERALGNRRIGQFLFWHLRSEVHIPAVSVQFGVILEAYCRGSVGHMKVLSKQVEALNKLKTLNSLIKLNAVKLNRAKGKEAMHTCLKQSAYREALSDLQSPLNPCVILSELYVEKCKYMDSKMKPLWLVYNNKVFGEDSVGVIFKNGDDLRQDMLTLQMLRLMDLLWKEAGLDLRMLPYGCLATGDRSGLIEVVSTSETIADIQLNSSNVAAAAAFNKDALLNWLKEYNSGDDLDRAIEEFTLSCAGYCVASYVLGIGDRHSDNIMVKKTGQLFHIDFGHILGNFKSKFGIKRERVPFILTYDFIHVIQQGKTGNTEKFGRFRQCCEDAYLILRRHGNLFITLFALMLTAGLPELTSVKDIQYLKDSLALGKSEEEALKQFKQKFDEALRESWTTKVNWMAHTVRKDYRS

Take `O=C([C@@H]1CCCN1)N1CCN(c2nc(N3CCOCC3)nc(-n3c(C(F)F)nc4ccccc43)n2)CC1`: in assay [1], the half-inhibitory concentration (IC50) was 30 nM. With `O=C([C@H]1CCCN1)N1CCN(c2nc(N3CCOCC3)nc(-n3c(C(F)F)nc4ccccc43)n2)CC1`, the 50% inhibitory concentration (IC50) in assay [1] stood at 30 nM. Regarding `N[C@@H](Cc1ccccc1)C(=O)N1CCN(c2nc(N3CCOCC3)nc(-n3c(C(F)F)nc4ccccc43)n2)CC1`, the 50% inhibitory concentration (IC50) in assay [2] was found to be 30 nM; in assay [3], 2800 nM.
